Tests used:
NAMPT = NAMPT (Homo sapiens, UniProt P43490); assay: TR-FRET Binding Assay of NAMPT with PRPP; details: with 200 μM PRPP and 2.5 mM ATP; 2 nM NAMPT, 2 nM probe, 16 hours equilibration
In short: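 Compounds were mixed with 2 nM His-tagged NAMPT, 2 nM probe, 1 nM terbium anti-His antibody, 200 μM PRPP and 2.5 mM ATP in assay buffer with 2% DMSO, then left 16 hours to permit possible enzymatic processing of compounds before time-resolved FRET was measured.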

PC3 cells = assay: NAMPT Cell Proliferation Assay; format: cell-based; details: Homo sapiens, PC-3, 120 h, 5 days incubation, cell viability by Cell Titer Glo
In short: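 Following overnight attachment in RPMI with 10% heat-inactivated FBS, PC3 cells at 500 per well receive compounds spanning 10 μM down to 1×10^−5 μM. Growth is assessed by luminescent viability read after 5 days.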

[1] = target: NAMPT (human, recombinant, C-terminally His-tagged) (Homo sapiens, UniProt P43490); assay: Time-Resolved Fluorescence Resonance Energy Transfer (TR-FRET) Binding Assay of NAMPT; details: without substrates; 6.8 nM NAMPT, 200 nM probe, 3 hours equilibration
Sequence of NAMPT (human, recombinant, C-terminally His-tagged) (P43490 whole entry): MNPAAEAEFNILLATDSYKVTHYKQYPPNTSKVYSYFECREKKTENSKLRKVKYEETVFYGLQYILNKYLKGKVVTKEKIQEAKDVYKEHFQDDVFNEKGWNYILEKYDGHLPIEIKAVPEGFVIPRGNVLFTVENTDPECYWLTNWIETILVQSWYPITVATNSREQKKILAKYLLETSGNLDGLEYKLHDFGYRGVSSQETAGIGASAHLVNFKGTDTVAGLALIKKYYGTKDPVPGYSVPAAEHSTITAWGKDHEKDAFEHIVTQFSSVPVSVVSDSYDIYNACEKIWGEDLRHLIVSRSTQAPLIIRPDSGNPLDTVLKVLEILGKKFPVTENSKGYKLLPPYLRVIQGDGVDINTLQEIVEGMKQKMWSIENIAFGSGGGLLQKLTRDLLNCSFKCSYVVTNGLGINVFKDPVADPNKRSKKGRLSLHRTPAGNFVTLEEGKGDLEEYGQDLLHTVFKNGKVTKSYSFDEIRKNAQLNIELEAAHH
In short: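 Compounds, diluted in half-log steps, are mixed with enzyme (6.8 nM), fluorescent probe (200 nM) and Tb-anti-His antibody (1 nM) in pH 7.5 HEPES buffer containing 10 mM MgCl2 and 1 mM DTT. Plates equilibrate 3 h at room temperature; normalized FRET ratios are fitted by four-parameter logistic regression for IC50.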

Sequence of NAMPT (P43490 whole entry): as above

SMILES: CC(C)OCCNC(=O)N(CC1CCOC1)c1ncc(C(=O)NCc2ccc3nccn3c2)s1 (stereo not drawn) [Example 157, N-(imidazo[1,2-a]pyridin-6-ylmethyl)-2-[{[2-(propan-2-yloxy)ethyl]carbamoyl}(tetrahydrofuran-3-ylmethyl)amino]-1,3-thiazole-5-carboxamide]
- IC50 (NAMPT): 0.0011 µM
- IC50 (PC3 cells): 0.0292 µM
- IC50 [1]: 4.14 µM

SMILES: COCCNC(=O)N(C[C@@H]1CCCO1)c1ncc(C(=O)NCc2ccc3nccn3c2)s1 [Example 155, N-(imidazo[1,2-a]pyridin-6-ylmethyl)-2-{[(2-methoxyethyl)carbamoyl][(2S)-tetrahydrofuran-2-ylmethyl]amino}-1,3-thiazole-5-carboxamide]
- IC50 (NAMPT): 0.0023 µM
- IC50 (PC3 cells): 0.0176 µM
- IC50 [1]: 3.37 µM

SMILES: O=C(CCc1ccccc1)Nc1ccc(NC(=O)NCc2ccn3ccnc3c2)cc1 [Example 285, N-(4-{[(imidazo[1,2-a]pyridin-7-ylmethyl)carbamoyl]amino}phenyl)-3-phenylpropanamide]
- IC50 (NAMPT): 0.000593 µM
- IC50 (PC3 cells): 0.301 µM
- IC50 [1]: 0.0826 µM

SMILES: O=C(NCc1ccn2ccnc2c1)c1ccc(C2CCN(C(=O)c3cccs3)C2)cc1 (stereo not drawn) [Example 488, N-(imidazo[1,2-a]pyridin-7-ylmethyl)-4-[1-(thiophen-2-ylcarbonyl)pyrrolidin-3-yl]benzamide]
- IC50 (NAMPT): 0.000544 µM
- IC50 (PC3 cells): 0.0983 µM
- IC50 [1]: 0.138 µM

SMILES: O=C(NCc1ccn2ccnc2c1)Nc1ccc(O[C@@H]2CCN(C(=O)CC3CCOCC3)C2)cc1 [Example 338, 1-(imidazo[1,2-a]pyridin-7-ylmethyl)-3-(4-{[(3R)-1-(tetrahydro-2H-pyran-4-ylacetyl)pyrrolidin-3-yl]oxy}phenyl)urea]
- IC50 (NAMPT): 0.000394 µM
- IC50 (PC3 cells): 0.081 µM
- IC50 [1]: 0.609 µM

SMILES: CC(C)CS(=O)(=O)N1CCC(c2ccc(C(=O)NCc3ccn4ccnc4c3)s2)CC1 [Example 573, N-(imidazo[1,2-a]pyridin-7-ylmethyl)-5-{1-[(2-methylpropyl)sulfonyl]piperidin-4-yl}thiophene-2-carboxamide]
- IC50 (NAMPT): 0.000403 µM
- IC50 (PC3 cells): 0.00372 µM
- IC50 [1]: 0.0242 µM

SMILES: CC(C)CC(=O)N1CCC(n2nccc2C(=O)NCc2ccn3ccnc3c2)CC1 [Example 409]
- IC50 (NAMPT): 0.48 µM
- IC50 (PC3 cells): ≥ 10 µM
- IC50 [1]: > 10 µM

SMILES: CC(C)(C)OC(=O)N1CC[C@@H](Oc2ccc(C(=O)NCc3ccn4ccnc4c3)cc2)C1 [Example 436, tert-butyl (3R)-3-{4-[(imidazo[1,2-a]pyridin-7-ylmethyl)carbamoyl]phenoxy}pyrrolidine-1-carboxylate]
- IC50 (NAMPT): 0.000416 µM
- IC50 (PC3 cells): 0.762 µM
- IC50 [1]: 1.59 µM

SMILES: N#Cc1ccc(CN(C(=O)CC2CCCC2)c2ccc(C(=O)NCc3ccc4nccn4c3)cc2)cc1 [Example 215, 4-[(4-cyanobenzyl)(cyclopentylacetyl)amino]-N-(imidazo[1,2-a]pyridin-6-ylmethyl)benzamide]
- IC50 (NAMPT): 0.00304 µM
- IC50 (PC3 cells): 0.686 µM
- IC50 [1]: 2.01 µM

SMILES: COCC(=O)N1CCC(c2ccc(C(=O)NCc3ccn4ccnc4c3)s2)CC1 [Example 257, N-(imidazo[1,2-a]pyridin-7-ylmethyl)-5-[1-(methoxyacetyl)piperidin-4-yl]thiophene-2-carboxamide]
- IC50 (NAMPT): 0.000344 µM
- IC50 (PC3 cells): 0.0152 µM
- IC50 [1]: 0.101 µM

SMILES: O=C(NCc1ccn2ccnc2c1)Nc1ccc(OC2CCN(C(=O)c3ccc(F)cc3F)CC2)cc1 [Example 727, 1-(4-{[1-(2,4-difluorobenzoyl)piperidin-4-yl]oxy}phenyl)-3-(imidazo[1,2-a]pyridin-7-ylmethyl)urea]
- IC50 (NAMPT): 0.000783 µM
- IC50 (PC3 cells): 0.0582 µM
- IC50 [1]: 0.166 µM

SMILES: O=C(NCc1ccn2ccnc2c1)Nc1ccc(C2CCN(C(=O)c3cc(F)ccc3F)CC2)cc1 [Example 725, 1-{4-[1-(2,5-difluorobenzoyl)piperidin-4-yl]phenyl}-3-(imidazo[1,2-a]pyridin-7-ylmethyl)urea]
- IC50 (NAMPT): 0.000747 µM
- IC50 (PC3 cells): 0.006 µM
- IC50 [1]: 0.0196 µM

SMILES: CC(C)OCC(=O)N1CCC(Oc2ccc(NC(=O)NCc3ccn4ccnc4c3)cc2)CC1 [Example 446, 1-(imidazo[1,2-a]pyridin-7-ylmethyl)-3-[4-({1-[(propan-2-yloxy)acetyl]piperidin-4-yl}oxy)phenyl]urea]
- IC50 (NAMPT): 0.000253 µM
- IC50 (PC3 cells): 0.0612 µM
- IC50 [1]: 0.388 µM

SMILES: O=C(NCc1ccn2ccnc2c1)Nc1ccc(OC2CCN(C(=O)[C@@H]3CCCO3)CC2)cc1 [Example 449, 1-(imidazo[1,2-a]pyridin-7-ylmethyl)-3-[4-({1-[(2S)-tetrahydrofuran-2-ylcarbonyl]piperidin-4-yl}oxy)phenyl]urea]
- IC50 (NAMPT): 0.000169 µM
- IC50 (PC3 cells): 0.0236 µM
- IC50 [1]: 0.256 µM

SMILES: O=C(NCc1ccn2ccnc2c1)c1cnc(C2CCN(C(=O)c3ccccc3F)CC2)s1 [Example 802, 2-[1-(2-fluorobenzoyl)piperidin-4-yl]-N-(imidazo[1,2-a]pyridin-7-ylmethyl)-1,3-thiazole-5-carboxamide]
- IC50 (NAMPT): 0.000533 µM
- IC50 (PC3 cells): 0.00583 µM
- IC50 [1]: 0.0359 µM

SMILES: CC(C)Cn1cc(-c2ccc(NC(=O)NCc3ccn4ccnc4c3)cc2)cn1 [Example 486, 1-(imidazo[1,2-a]pyridin-7-ylmethyl)-3-{4-[1-(2-methylpropyl)-1H-pyrazol-4-yl]phenyl}urea]
- IC50 (NAMPT): 0.000232 µM
- IC50 (PC3 cells): 0.0233 µM
- IC50 [1]: 0.0917 µM

SMILES: O=C(NCc1ccc2nccn2c1)c1ccc(C2=CCN(C(=O)C3CCC(F)(F)CC3)CC2)cc1 [Example 105, 4-{1-[(4,4-difluorocyclohexyl)carbonyl]-1,2,3,6-tetrahydropyridin-4-yl}-N-(imidazo[1,2-a]pyridin-6-ylmethyl)benzamide]
- IC50 (NAMPT): 0.000476 µM
- IC50 (PC3 cells): 0.00661 µM
- IC50 [1]: 0.106 µM

SMILES: O=C(NCc1ccn2ccnc2c1)c1ccc(C2CN(C(=O)c3cccs3)C2)cc1 [Example 552, N-(imidazo[1,2-a]pyridin-7-ylmethyl)-4-[1-(thiophen-2-ylcarbonyl)azetidin-3-yl]benzamide]
- IC50 (NAMPT): 0.000543 µM
- IC50 (PC3 cells): 0.0426 µM
- IC50 [1]: 0.184 µM

SMILES: CCn1cc(-c2ccc(C(=O)NCc3ccn4ccnc4c3)s2)cn1 [Example 295, 5-(1-ethyl-1H-pyrazol-4-yl)-N-(imidazo[1,2-a]pyridin-7-ylmethyl)thiophene-2-carboxamide]
- IC50 (NAMPT): 0.000292 µM
- IC50 (PC3 cells): 0.0242 µM
- IC50 [1]: 0.0561 µM

SMILES: O=C(CC1CCOCC1)Nc1ccc(NC(=O)Nc2ccc3nccn3c2)cc1 [Example 40]
- IC50 (NAMPT): 0.000217 µM
- IC50 (PC3 cells): 0.0708 µM
- IC50 [1]: 0.0409 µM

SMILES: O=C(NCc1ccn2ccnc2c1)Nc1ccc(C2CCN(C(=O)C3CCCO3)CC2)cc1 (stereo not drawn) [Example 220, 1-(imidazo[1,2-a]pyridin-7-ylmethyl)-3-{4-[1-(tetrahydrofuran-2-ylcarbonyl)piperidin-4-yl]phenyl}urea]
- IC50 (NAMPT): 0.000278 µM
- IC50 (PC3 cells): 0.00573 µM
- IC50 [1]: 0.0742 µM

SMILES: O=C(NCCCCC1CCN(C(=O)CC2CCOC2)CC1)Nc1ccc2nccn2c1 (stereo not drawn) [Example 73, 1-imidazo[1,2-a]pyridin-6-yl-3-{4-[1-(tetrahydrofuran-3-ylacetyl)piperidin-4-yl]butyl}urea]
- IC50 (NAMPT): 0.000426 µM
- IC50 (PC3 cells): 0.0595 µM
- IC50 [1]: 0.605 µM

SMILES: O=C(CCC(F)(F)F)Nc1ccc(NC(=O)Nc2ccc3nccn3c2)cc1 [Example 45, 4,4,4-trifluoro-N-{4-[(imidazo[1,2-a]pyridin-6-ylcarbamoyl)amino]phenyl}butanamide]
- IC50 (NAMPT): 0.00119 µM
- IC50 (PC3 cells): 2.07 µM
- IC50 [1]: 0.879 µM

SMILES: O=C(NCc1ccn2ccnc2c1)c1ccc(C2CCN(C(=O)c3cccs3)CC2)cc1 [Example 503, N-(imidazo[1,2-a]pyridin-7-ylmethyl)-4-[1-(thiophen-2-ylcarbonyl)piperidin-4-yl]benzamide]
- IC50 (NAMPT): 0.000277 µM
- IC50 (PC3 cells): 0.00421 µM
- IC50 [1]: 0.0532 µM

SMILES: O=C(NCc1ccn2ccnc2c1)Nc1ccc(C2=CCN(C(=O)CC3CCOCC3)CC2)cc1F [Example 439, 1-{2-fluoro-4-[1-(tetrahydro-2H-pyran-4-ylacetyl)-1,2,3,6-tetrahydropyridin-4-yl]phenyl}-3-(imidazo[1,2-a]pyridin-7-ylmethyl)urea]
- IC50 (NAMPT): 0.000641 µM
- IC50 (PC3 cells): 0.0375 µM
- IC50 [1]: 0.453 µM

SMILES: O=C(NCc1ccn2ccnc2c1)c1ccc(C2CCN(C(=O)c3ccc(F)cc3F)C2)s1 (stereo not drawn) [Example 772, 5-[1-(2,4-difluorobenzoyl)pyrrolidin-3-yl]-N-(imidazo[1,2-a]pyridin-7-ylmethyl)thiophene-2-carboxamide]
- IC50 (NAMPT): 0.000828 µM
- IC50 (PC3 cells): 0.0024 µM
- IC50 [1]: 0.0615 µM

SMILES: C[C@@H]1COC(=O)N1c1ncc(C(=O)NCc2ccn3ccnc3c2)s1 [Example 245, N-(imidazo[1,2-a]pyridin-7-ylmethyl)-2-[(4R)-4-methyl-2-oxo-1,3-oxazolidin-3-yl]-1,3-thiazole-5-carboxamide]
- IC50 (NAMPT): 0.000502 µM
- IC50 (PC3 cells): 5.5 µM
- IC50 [1]: 2.89 µM

SMILES: O=C(Nc1ccc(C2CCN(C(=O)CC3CCCO3)CC2)cc1)Nc1ccc2nccn2c1 (stereo not drawn) [Example 111, 1-imidazo[1,2-a]pyridin-6-yl-3-{4-[1-(tetrahydrofuran-2-ylacetyl)piperidin-4-yl]phenyl}urea]
- IC50 (NAMPT): 0.000209 µM
- IC50 (PC3 cells): 0.0755 µM
- IC50 [1]: 0.263 µM

SMILES: Cn1nccc1C(=O)N1CCC(c2ccc(C(=O)NCc3ccn4ccnc4c3)cc2)CC1 [Example 511, N-(imidazo[1,2-a]pyridin-7-ylmethyl)-4-{1-[(1-methyl-1H-pyrazol-5-yl)carbonyl]piperidin-4-yl}benzamide]
- IC50 (NAMPT): 0.000286 µM
- IC50 (PC3 cells): 0.00278 µM
- IC50 [1]: 0.0653 µM

— patent US9187472B2 (AbbVie Inc., priority 2012, dated 2015)
